Experimental data as given in patent US20240199571A1, “THIOPHENE COMPOUND AND APPLICATION THEREOF” (MEDSHINE DISCOVERY INC., priority 2021, published 2024).
pIC50: −log10 of the molar value. Counter-ions that a name gives are not always drawn.

How the values were obtained:
[1] = Experiment 3: pharmacokinetic evaluation in CD-1 mice (IV and oral); assay type: in vivo; details: mouse, plasma, male CD-1 mice; for clearance / half-life / Vd: IV 1 mg/kg; for clearance: read-out: Clearance rate CL; for half-life: read-out: Half life T1/2 (IV, h) (converted); for Vd: read-out: Volume of distribution at steady state Vdss; for bioavailability: PO 2 mg/kg vs IV 1 mg/kg, read-out: Bioavailability F (%); for AUC(0-t): PO 2 mg/kg, read-out: Area under drug-time curve AUC0-last PO; for Cmax: single dose, oral 2 mg/kg, read-out: Peak concentration Cmax
In short: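 Male/female CD-1 mice aged 7-9 weeks, two per route, received single doses of 1 mg/kg IV or 2 mg/kg oral gavage in 10% DMSO/90% of 10% HP-β-cyclodextrin. Plasma was sampled from 0.083 (IV) or 0.25 (PO) to 24 h. Methanol-precipitated samples were measured by LC-MS/MS to derive Cmax, CL, T1/2, Vdss, AUC0-last and F.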

[2] = system: human small cell lung cancer NCI-H1417 cell subcutaneous xenograft tumor; assay: Experiment 5: in vivo pharmacodynamic study, NCI-H1417 subcutaneous xenograft tumor in CB17-SCID mice; details: p.o.; for Mean tumor volume ± SEM (mm^3) (Day 28): day 28 after administration; for TGI (%): tumor volume at day 28
Source text: Experiment 5: In Vivo Pharmacodynamic Study of Compounds on CB17-SCID Mouse Model of Human Small Cell Lung Cancer NCI-H1417 Cell Subcutaneous Xenograft Tumor
The purpose of this experiment was to evaluate the in vivo efficacy of the compounds of the present disclosure on CB17-SCID mouse model of human small cell lung cancer NCI-H1417 cell subcutaneous xenograft tumor.
5.2 Experimental Animals: • Species: mice • Strain: CB17-SCID mice • Week age and weight: 6-8 weeks old, 18 to 22 grams • Gender: Female • Supplier: Beijing Vital River Laboratory Animal Technology Co., Ltd.
Human lung cancer cells NCI-H1417 were cultured in vitro in suspension in RPMI 1640 medium with 10% fetal bovine serum, 100 U/mL penicillin, and 100 μg/mL streptomycin at 37° C. in a 5% CO2 cell culture incubator. Routine digestion and passage treatment were performed twice a week. When the number of cells reached the required number, the cells were counted and resuspended in PBS at a density of 10×10^6 cells/200 μL.
0.2 mL of NCI-H1417 tumor cells (containing 10×10^6 cells) suspension (PBS: matrix gel=1:1) was subcutaneously inoculated on the right back of mice, and in pharmacodynamic experiments, on the 16th day after cell inoculation, when the average tumor volume reached 86 mm^3, the subjects were randomly grouped and the administration started.
The experimental vehicle was 5% dimethyl sulfoxide/95% (10% Solutol) solution. Preparation method: 3.8 mL of […] was taken and added to 34.2 mL of double-distilled water, 2 mL of dimethyl sulfoxide was added thereto, and the mixture was mixed well. The test substance was dissolved with the vehicle, prepared as a homogeneous solution of a certain concentration, and stored at 4° C.
The experimental indicator was to examine whether tumor growth was inhibited, delayed, or cured. The tumor diameter was measured twice a week using vernier calipers. The calculation formula of tumor volume is V=0.5a×b^2, wherein a and b represent the long and short diameters of the tumor respectively.
The tumor inhibitory efficacy of compounds was evaluated by TGI (%). TGI (%) reflects the tumor growth inhibition rate. Calculation of TGI (%): TGI (%)=[1−(Average tumor volume at the end of administration in a certain treatment group−Average tumor volume at the beginning of administration in this treatment group)/(Average tumor volume at the end of treatment in the vehicle control group−Average tumor volume at the beginning of treatment in the vehicle control group)]×100%.

[3] = system: NCI-H1417 cells; assay: Experiment 2: inhibition of NCI-H1417 cell proliferation (CellTiter-Glo, 10 days); assay type: cell-based; details: Homo sapiens, 240 h, 10 days incubation
In short: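 Cells at 1000 per well exposed to 10-point 3-fold dilutions from 10 μM top concentration for 10 days. Viability by CellTiter-Glo luminescence; inhibition normalized to max/min controls, IC50 from four-parameter fit.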

Row | clearance [1] [mL/min/kg] | half-life [1] [h] | Vd [1] [L/kg] | bioavailability [1] [%] | AUC(0-t) [1] [µM·h] | Cmax [1] [nM] | pIC50 [3] | SMILES | Mean tumor volume ± SEM (mm^3) (Day 28) ([2]; 30 mg/kg, BID) | TGI (%) ([2]; 30 mg/kg, BID) | Mean tumor volume ± SEM (mm^3) (Day 28) ([2]; 5 mg/kg, BID) | TGI (%) ([2]; 5 mg/kg, BID) | Mean tumor volume ± SEM (mm^3) (Day 28) ([2]; 5 mg/kg, QD) | TGI (%) ([2]; 5 mg/kg, QD) | Mean tumor volume ± SEM (mm^3) (Day 28) ([2]; 10 mg/kg, QD) | TGI (%) ([2]; 10 mg/kg, QD)
1 | 25.7 | 1.54 | 3.13 | 41.1 | 1.01 | 267 | 8.29 | CC(C)(CO)n1cc2cc(-c3sc(C(=O)N4CCC[C@@H](N)C4)cc3-c3ccc(C#N)c(F)c3)ccc2n1 [Hydrochloride of compound 87] | 67 ± 5 | 105.17 | – | – | – | – | – | –
2 | 45.3 | 2.28 | 6.94 | 58.6 | 0.708 | 160 | 10.15 | CN[C@@H]1CCCN(C(=O)c2cc(-c3ccc(C#N)c(F)c3)c(-c3cc4nnn(CC(C)(C)O)c4c(F)c3F)s2)C1 [Hydrochloride of compound 98] | – | – | 34 ± 1 | 114.20 | 44 ± 2 | 111.58 | 38 ± 3 | 113.35
